From ChEMBL document CHEMBL4017490, “Design, Synthesis, and Pharmacological Evaluation of Novel Multisubstituted Pyridin-3-amine Derivatives as Multitargeted Protein Kinase Inhibitors for the Treatment of Non-Small Cell Lung Cancer” (J Med Chem, 2017)

Experiments:
[1] = molecular target: Fibroblast growth factor receptor 1 (Homo sapiens, UniProt P11362); experiment: Inhibition of recombinant human FGFR1 using poly (Glu,Tyr) 4:1 as substrate after 60 mins by ELISA
[2] = molecular target: Fibroblast growth factor receptor 2 (Homo sapiens, UniProt P21802)
Description: Inhibition of recombinant human FGFR2 using poly (Glu,Tyr) 4:1 as substrate after 60 mins by ELISA

[3] = molecular target: Fibroblast growth factor receptor 3 (Homo sapiens, UniProt P22607); experiment: Inhibition of recombinant human FGFR3 using poly (Glu,Tyr) 4:1 as substrate after 60 mins by ELISA
[4] = Inhibition of FGFR3 mutant in human UM-UC-14 cells assessed as inhibition of cell proliferation after 72 hrs by cell counting kit-8 assay; type: cell-based; details: UMUC14, 72 h

Chain of Fibroblast growth factor receptor 2 (P21802 whole entry): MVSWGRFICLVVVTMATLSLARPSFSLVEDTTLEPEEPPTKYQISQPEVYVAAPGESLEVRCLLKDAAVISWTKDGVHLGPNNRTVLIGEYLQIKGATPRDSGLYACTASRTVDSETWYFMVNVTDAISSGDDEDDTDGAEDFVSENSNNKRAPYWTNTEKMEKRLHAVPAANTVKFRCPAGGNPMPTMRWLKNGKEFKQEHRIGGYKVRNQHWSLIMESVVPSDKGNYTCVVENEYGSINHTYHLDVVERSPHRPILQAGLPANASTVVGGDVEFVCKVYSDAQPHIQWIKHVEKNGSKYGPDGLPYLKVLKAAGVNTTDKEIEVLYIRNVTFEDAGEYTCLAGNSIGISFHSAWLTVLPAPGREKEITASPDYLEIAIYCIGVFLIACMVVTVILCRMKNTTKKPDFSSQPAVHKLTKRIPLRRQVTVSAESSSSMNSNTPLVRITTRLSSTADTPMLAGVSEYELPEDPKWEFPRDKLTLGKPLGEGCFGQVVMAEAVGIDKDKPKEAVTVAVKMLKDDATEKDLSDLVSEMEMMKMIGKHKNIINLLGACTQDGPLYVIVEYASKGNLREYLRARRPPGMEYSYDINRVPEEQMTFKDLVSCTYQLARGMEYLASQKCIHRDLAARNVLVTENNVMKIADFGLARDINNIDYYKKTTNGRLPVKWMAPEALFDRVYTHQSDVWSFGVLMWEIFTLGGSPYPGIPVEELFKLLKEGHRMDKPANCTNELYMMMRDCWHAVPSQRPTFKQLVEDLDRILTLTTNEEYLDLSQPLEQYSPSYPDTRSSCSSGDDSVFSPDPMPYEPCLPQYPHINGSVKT
Chain of Fibroblast growth factor receptor 1 (P11362 whole entry): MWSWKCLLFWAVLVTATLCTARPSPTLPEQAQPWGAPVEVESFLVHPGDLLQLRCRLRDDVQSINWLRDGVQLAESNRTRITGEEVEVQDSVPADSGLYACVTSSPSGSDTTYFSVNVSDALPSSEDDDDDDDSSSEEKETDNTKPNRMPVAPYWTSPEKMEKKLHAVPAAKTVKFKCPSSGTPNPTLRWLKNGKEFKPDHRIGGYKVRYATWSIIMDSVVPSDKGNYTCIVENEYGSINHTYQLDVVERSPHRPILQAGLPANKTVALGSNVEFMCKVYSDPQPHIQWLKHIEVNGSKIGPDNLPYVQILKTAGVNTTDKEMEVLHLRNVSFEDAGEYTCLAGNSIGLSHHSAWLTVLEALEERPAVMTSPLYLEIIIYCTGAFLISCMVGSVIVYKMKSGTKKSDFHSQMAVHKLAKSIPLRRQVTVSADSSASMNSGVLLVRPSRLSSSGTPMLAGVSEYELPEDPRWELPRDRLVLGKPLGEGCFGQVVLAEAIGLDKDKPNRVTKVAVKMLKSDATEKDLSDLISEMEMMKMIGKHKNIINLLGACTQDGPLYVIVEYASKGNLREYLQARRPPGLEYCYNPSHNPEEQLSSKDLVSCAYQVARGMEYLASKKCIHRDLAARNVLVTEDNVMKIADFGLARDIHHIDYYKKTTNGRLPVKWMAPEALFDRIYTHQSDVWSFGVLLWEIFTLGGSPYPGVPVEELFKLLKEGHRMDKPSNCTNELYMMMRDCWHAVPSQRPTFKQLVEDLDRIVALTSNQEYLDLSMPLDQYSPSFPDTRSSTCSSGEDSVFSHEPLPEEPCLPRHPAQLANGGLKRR
Chain of Fibroblast growth factor receptor 3 (P22607 whole entry): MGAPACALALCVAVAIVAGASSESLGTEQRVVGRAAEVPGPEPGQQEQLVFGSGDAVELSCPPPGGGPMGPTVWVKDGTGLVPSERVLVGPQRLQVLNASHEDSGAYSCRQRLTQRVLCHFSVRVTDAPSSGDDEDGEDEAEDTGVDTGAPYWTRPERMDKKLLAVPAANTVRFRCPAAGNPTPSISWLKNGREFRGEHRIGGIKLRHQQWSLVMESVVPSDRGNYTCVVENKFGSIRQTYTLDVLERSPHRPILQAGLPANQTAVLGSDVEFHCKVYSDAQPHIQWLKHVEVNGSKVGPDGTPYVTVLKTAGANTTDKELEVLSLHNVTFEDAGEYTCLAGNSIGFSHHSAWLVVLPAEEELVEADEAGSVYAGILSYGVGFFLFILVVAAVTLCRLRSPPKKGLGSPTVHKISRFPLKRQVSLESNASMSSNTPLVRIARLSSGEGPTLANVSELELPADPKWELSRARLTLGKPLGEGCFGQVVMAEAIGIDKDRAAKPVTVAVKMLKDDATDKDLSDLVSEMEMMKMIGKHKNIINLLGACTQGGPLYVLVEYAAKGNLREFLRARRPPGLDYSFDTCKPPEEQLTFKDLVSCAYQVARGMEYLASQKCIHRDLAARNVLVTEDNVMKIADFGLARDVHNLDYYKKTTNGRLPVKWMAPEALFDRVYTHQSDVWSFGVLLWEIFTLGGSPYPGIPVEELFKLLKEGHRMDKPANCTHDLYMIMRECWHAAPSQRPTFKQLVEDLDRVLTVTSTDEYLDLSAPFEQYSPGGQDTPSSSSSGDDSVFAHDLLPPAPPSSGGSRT

Row | IC50 [1] | IC50 [2] | IC50 [3] | Structure (SMILES) | IC50 [4]
1 | > 1000 nM | > 1000 nM | > 1000 nM | Cc1n[nH]c2ccc(-c3cc(N[C@@H](CO)c4ccccc4)cnc3-c3cc(C(C)C)ccc3O)cc12 | 
2 | 437 nM | 44.6 nM | 431 nM | Cc1n[nH]c2ccc(-c3cc(N[C@@H](CO)c4ccccc4)cnc3-c3ccccc3F)cc12 | 
3 | 10.6 nM | 2.8 nM | 27.6 nM | Cc1n[nH]c2ccc(-c3cc(N[C@@H](CO)c4ccccc4)cnc3-c3cc(F)c(F)cc3O)cc12 | 
4 | > 1000 nM | > 1000 nM | > 1000 nM | Cc1n[nH]c2ccc(-c3cc(N[C@@H](C)c4ccccc4)cnc3-c3cc(Cl)ccc3O)cc12 | 
5 |  |  |  | COc1cc(CCc2cc(NC(=O)c3ccc(N4C[C@@H](C)N[C@@H](C)C4)cc3)n[nH]2)cc(OC)c1 [FEXAGRATINIB] | 27.1 nM
6 | 91.5 nM | 154 nM | 591 nM | O=C1Cc2cc(-c3cc(N[C@@H](CO)c4ccccc4)cnc3-c3cc(Cl)ccc3O)ccc2N1 | 
7 | 418 nM | 250 nM | 3650 nM | CC(=O)Nc1ccccc1-c1ncc(N[C@@H](CO)c2ccccc2)cc1-c1ccc2[nH]nc(C)c2c1 | 
8 | 32.3 nM | 16.1 nM | 22.8 nM | Cc1ccc(O)c(-c2ncc(N[C@@H](CO)c3ccccc3)cc2-c2ccc3[nH]nc(C)c3c2)c1 | 
9 | > 1000 nM | > 1000 nM | > 1000 nM | Cc1n[nH]c2ccc(-c3cc(N[C@@H](CO)c4ccccc4)cnc3-c3cccc4cccnc34)cc12 | 
10 | 14.9 nM | 3 nM | 8 nM | Cc1n[nH]c2ccc(-c3cc(N[C@@H](CO)c4ccccc4)cnc3-c3ccccc3O)cc12 | 
11 | > 1000 nM | 100 to 1000 nM | > 1000 nM | Cc1n[nH]c2ccc(-c3cc(N[C@@H](CO)c4ccccc4)cnc3-c3ccco3)cc12 | 
12 | 167 nM | 50.5 nM | 251 nM | Cc1n[nH]c2ccc(-c3cc(N[C@@H](CO)c4ccccc4)cnc3-c3ccccc3CO)cc12 | 
13 | > 1000 nM | 100 to 1000 nM | > 1000 nM | COc1ccccc1-c1ncc(N[C@@H](CO)c2ccccc2)cc1-c1ccc2[nH]nc(C)c2c1 | 
14 | > 1000 nM | > 1000 nM | > 1000 nM | Cc1n[nH]c2ccc(-c3cc(NCCO)cnc3-c3cc(F)ccc3O)cc12 | 
15 | 168 nM | 71.9 nM | 401 nM | Cc1n[nH]c2ccc(-c3cc(NC[C@H](O)c4ccccc4)cnc3-c3cc(Cl)ccc3O)cc12 | 
16 | > 1000 nM | > 1000 nM | > 1000 nM | Cc1n[nH]c2ccc(-c3cc(NCCCO)cnc3-c3cc(F)ccc3O)cc12 | 

Row | IC50 [1] | IC50 [2] | IC50 [3] | Structure (SMILES) | IC50 [4]
17 | 3800 nM | > 1000 nM | > 1000 nM | Cc1n[nH]c2ccc(-c3cc(N[C@@H](CO)c4ccccc4)cnc3-c3ccoc3)cc12 | 
18 | > 1000 nM | > 1000 nM | > 1000 nM | Cc1n[nH]c2ccc(-c3cc(N[C@@H](CO)c4ccccc4)cnc3-c3cccnc3)cc12 | 
19 | 456 nM | 56.4 nM | 561 nM | Cc1n[nH]c2ccc(-c3cc(N[C@@H](CO)c4ccccc4)cnc3-c3cccc4cc[nH]c34)cc12 | 
20 | 24.9 nM | 6.6 nM | 93.9 nM | Cc1n[nH]c2ncc(-c3cc(N[C@@H](CO)c4ccccc4)cnc3-c3cc(Cl)ccc3O)cc12 | 
21 | 66.5 nM | 21.4 nM | 434 nM | Cc1n[nH]c2ccc(-c3cc(N[C@@H](CO)c4ccccc4)cnc3-c3cccc(O)c3)cc12 | 
22 | > 1000 nM | 100 to 1000 nM | > 1000 nM | Cc1n[nH]c2ccc(-c3cc(N[C@@H](CO)c4ccccc4)cnc3-c3cccs3)cc12 | 
23 | > 1000 nM | > 1000 nM | > 1000 nM | OC[C@H](Nc1cnc(-c2cc(Cl)ccc2O)c(-c2ccc3[nH]ccc3c2)c1)c1ccccc1 | 
24 | 327 nM | 56.9 nM | 970 nM | Cc1n[nH]c2ccc(-c3cc(N[C@@H](CO)c4ccccc4)cnc3-c3ccsc3)cc12 | 
25 | > 1000 nM | > 1000 nM | > 1000 nM | Cc1n[nH]c2ccc(-c3cc(N[C@@H](CO)c4ccccc4)cnc3-c3ccccc3C(F)(F)F)cc12 | 
26 | 128 nM | 26.3 nM | 280 nM | Cc1n[nH]c2ccc(-c3cc(N[C@@H](CO)c4ccccc4)cnc3-c3ccccc3)cc12 | 
27 | 63.5 nM | 3.4 nM | 58.4 nM | Cc1n[nH]c2ccc(-c3cc(N[C@@H](CO)c4ccccc4)cnc3-c3cc(F)cc(F)c3O)cc12 | 
28 | 48.8 nM | 72.9 nM | 388 nM | Cc1n[nH]c2ccc(-c3cc(N[C@@H](CO)c4ccccc4)cnc3-c3ccccc3C(N)=O)cc12 | 
29 | > 1000 nM | > 1000 nM | > 1000 nM | Cc1n[nH]c2ccc(-c3cc(N[C@H](CO)c4ccccc4)cnc3-c3cc(Cl)ccc3O)cc12 | 
30 | 27.9 nM | 2.5 nM | 35.3 nM | Cc1n[nH]c2ccc(-c3cc(N[C@@H](CO)c4ccccc4)cnc3-c3cccc(F)c3O)cc12 | 
31 | > 1000 nM | > 1000 nM | > 1000 nM | CC(=O)Nc1ccc(-c2cc(N[C@@H](CO)c3ccccc3)cnc2-c2cc(Cl)ccc2O)cc1 | 
